Measurements reported in US8871794B2, “Small-molecule agonists for type-2 orexin receptor” (Board of Regents, The University of Texas System, priority 2008, dated 2014).

Key:
Format in all cases: cell-based
OX2R [1] = biological target: T1, OX2R (Homo sapiens, UniProt O43614); test: NFAT-luciferase transcriptional reporter assay in transiently co-transfected HEK293T cells; set-up: expressed in transfected cells; host or cells: HEK293T cells, transient co-transfection
T1 sequence (O43614 1-444): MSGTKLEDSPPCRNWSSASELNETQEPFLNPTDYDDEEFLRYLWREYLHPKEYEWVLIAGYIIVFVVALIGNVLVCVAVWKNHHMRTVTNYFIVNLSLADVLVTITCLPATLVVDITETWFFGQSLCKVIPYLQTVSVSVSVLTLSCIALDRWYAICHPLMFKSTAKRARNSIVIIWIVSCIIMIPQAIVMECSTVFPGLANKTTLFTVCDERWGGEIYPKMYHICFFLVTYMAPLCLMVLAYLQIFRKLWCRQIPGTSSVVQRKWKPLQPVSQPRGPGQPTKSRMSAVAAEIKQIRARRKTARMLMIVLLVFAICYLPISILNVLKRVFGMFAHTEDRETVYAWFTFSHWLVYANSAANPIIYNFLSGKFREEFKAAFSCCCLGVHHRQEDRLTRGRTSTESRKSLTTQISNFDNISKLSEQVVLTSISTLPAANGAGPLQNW

OX1R = biological target: T2, OX1R (Homo sapiens, UniProt O43613); test: Intracellular Calcium Transient Assay in OX1R-expressing CHO cells
T2 construct: Open reading frames of OX1R, OX2R and GRP (control) receptor were inserted into a bicistronic retrovirus expression vector; expressed in transfected cells; host or cells: CHO cells harboring ecotropic retroviral receptor, infected with retrovirus and selected with puromycin
T2 sequence (O43613 1-425): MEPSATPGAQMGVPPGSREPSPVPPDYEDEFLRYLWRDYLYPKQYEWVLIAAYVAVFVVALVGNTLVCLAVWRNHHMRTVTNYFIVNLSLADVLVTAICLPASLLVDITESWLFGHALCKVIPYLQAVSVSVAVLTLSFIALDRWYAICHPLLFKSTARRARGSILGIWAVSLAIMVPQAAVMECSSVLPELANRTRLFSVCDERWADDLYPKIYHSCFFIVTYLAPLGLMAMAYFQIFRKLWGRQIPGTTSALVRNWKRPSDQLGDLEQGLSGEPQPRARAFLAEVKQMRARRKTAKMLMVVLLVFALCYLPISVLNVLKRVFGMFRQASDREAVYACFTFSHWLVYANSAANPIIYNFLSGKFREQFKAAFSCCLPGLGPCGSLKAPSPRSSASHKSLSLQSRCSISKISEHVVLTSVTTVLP
Method: (§1) DNA Construction: Open reading frames of OX1R, OX2R and GRP (control) receptor were inserted into a bicistronic retrovirus expression vector, pMXs-IRES-puror (pMXs-IP), which carried a FLAG™ epitope cDNA sequence at the beginning of the ORF sequences encoding their human polypeptides.
(§2) Transfection and retrovirus production: Transfection was carried out using FuGENE 6 (Roche Diagnostics Corp.) according to the manufacturer's recommendations. Retroviruse fluid was harvested after 48 hours post transfection.
(§3) Cell lines: To generate receptor expressing cells, CHO cells harboring ecotropic retroviral receptor were infected with a retroviral supernatant. After 24 hours post infection, the retrovirus supernatant was removed and infected cells were selected with 10 μg/ml of puromycin (Sigma-Aldrich, St. Louis, Mo.). […]
(§4) 0.5 ml aliquot of the cell suspension was stimulated by addition of 5 μl of compound dissolved in DMSO. Changes of [Ca^2+]i transients in cells were measured at RT by using CAF-110 Intracellular Ion Analyser (JASCO, Tokyo) with the excitation wave lengths of 340 nm and 380 nm and emission wavelength of 500 nm

No Receptor_CRE = test: CRE reporter assay, no receptor control
OX2R [2] = biological target: T1, OX2R; test: CRE reporter assay, OX2R; set-up: expressed in transfected cells; host or cells: HEK293T cells, transient co-transfection
GRP receptor = biological target: T3, GRP receptor (Homo sapiens, UniProt P30550); test: Intracellular Calcium Transient Assay in CHO cells expressing control GRP receptor; conditions: cells expressing an unrelated Gq-coupled GPCR (GRP receptor)
T3 construct: Open reading frames of OX1R, OX2R and GRP (control) receptor were inserted into a bicistronic retrovirus expression vector; expressed in transfected cells; host or cells: CHO cells harboring ecotropic retroviral receptor, infected with retrovirus and selected with puromycin
T3 sequence (P30550 whole entry): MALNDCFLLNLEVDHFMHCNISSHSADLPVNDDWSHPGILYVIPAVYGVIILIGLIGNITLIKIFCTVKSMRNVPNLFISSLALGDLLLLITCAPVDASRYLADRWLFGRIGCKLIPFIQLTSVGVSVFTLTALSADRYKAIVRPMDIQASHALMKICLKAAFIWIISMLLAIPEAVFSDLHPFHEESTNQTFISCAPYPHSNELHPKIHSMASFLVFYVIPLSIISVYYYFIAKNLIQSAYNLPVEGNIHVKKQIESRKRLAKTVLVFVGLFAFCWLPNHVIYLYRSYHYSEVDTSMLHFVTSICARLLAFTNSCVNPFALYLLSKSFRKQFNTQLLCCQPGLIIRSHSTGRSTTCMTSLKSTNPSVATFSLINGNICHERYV
Method: as §1, §2, §3, §4

- activation in transcriptional reporter assays (OX2R [1]; HEK293T cells, NFAT-luciferase reporter plasmid and receptor cDNA plasmid): dramatic activation
- Fold Induction, OX2R_NFTA (1) (OX2R [1]; assay (1)): 10.94
- Fold Induction, OX2R_NFTA (2) (OX2R [1]; assay (2)): 35.566
- Ca2+ response (OX1R): weaker response
- Fold Induction, No Receptor_CRE (No Receptor_CRE): 0.797
- reporter activation in a distinct CRE reporter system (OX2R [2]): confirmed reporter activation
- Fold Induction, OX2R_CRE (OX2R [2]; CRE reporter): 5.1935
- Ca2+ response (GRP receptor): no response
SMILES: Cc1ccc(Cn2c(=N)n(CC(O)c3ccc(Cl)c(Cl)c3)c3ccccc32)cc1 (centres unmarked) [Compound 130699]
